From publication PMC10988762, “Inhibition of malaria and babesiosis parasites by putative red blood cell targeting small molecules” (Frontiers in Cellular and Infection Microbiology, 2024)
Structures can show the parent of a compound that is named as a salt. Where two headings read alike, the source gives them in different places.

How the values were obtained:
P. falciparum strain 3D7 = assay: Inhibitor susceptibility dose-response assay (SYBR-Green I), P. falciparum 3D7; assay type: cell-based, Plasmodium falciparum; conditions: Plasmodium falciparum, read-out: IC50 (S.D.), P. falciparum-3D7
Procedure: (§1) The P. falciparum strains 3D7 and Dd2 were obtained from the Walter and Eliza Hall Institute (Melbourne, Australia) and the Malaria Research and Reference Reagent Resource, respectively. […] B. divergens parasites were maintained and assayed in mixed stages without synchronization.
(§2) Ring-stage P. falciparum (1%-parasitemia starting, 1%-hematocrit) and asynchronous B.divergens (0.5%-parasitemia starting, 3%-hematocrit) were incubated with plated compounds for 72h, and ring-stage P. knowlesi (1%-parasitemia starting, 1%-hematocrit) for 48h, before lysis and staining with dye. To quantify the species-specificity of the inhibitors, we divided the range of IC50s across the 4 test lines by the average IC50 across the same lines: inhibitors with increased scores show species-specific activity and reduced scores indicate broad-spectrum, pan-species activity.

P. falciparum strain Dd2 = assay: Inhibitor susceptibility dose-response assay (SYBR-Green I), P. falciparum Dd2; assay type: cell-based, Plasmodium falciparum; conditions: Plasmodium falciparum, read-out: IC50 (S.D.), P. falciparum-Dd2
Procedure: as §1, §2

[1] = test system: BdC9 line of B. divergens; assay: Inhibitor susceptibility dose-response assay (SYBR-Green I), B. divergens; assay type: cell-based, Babesia divergens; conditions: Babesia divergens, read-out: IC50 (S.D.), B. divergens
Procedure: as §1, §2

P. knowlesi YH1 strain = assay: microbe, parasite or virus in culture; assay type: cell-based, Plasmodium knowlesi; conditions: for IC50: Plasmodium knowlesi, 48 h, read-out: IC50 (S.D.), P. knowlesi
Procedure: as §1, §2

in vitro = conditions: human
uninfected RBCs [2] = assay: Cellular phosphatidylserine exposure assay (annexin V flow cytometry);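 for all read-outs here: flow cytometry recording 10,000 events per condition, gated on single cells, with the two experiments using blood from separate donors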; conditions: for PS exposure on RBCs, in words: 5x P. falciparum 3D7-IC50, 24, 48, 72h
RBC = conditions: read-out: Micromolar IC50 (RBC), PS exposure, cited from earlier work
P. falciparum (3D7) = assay: Assay for inhibition of parasite proliferation via RBC-targeting (transient exposure of RBCs, wash, then infection); assay type: cell-based, Plasmodium falciparum; conditions: for antimalarial activity retained after transient exposure of RBCs, relative to continuous exposure to inhibitor: 5x P. falciparum 3D7-IC50, RBC preincubation 4-5 hours then washed, 100% = inhibition with continuous exposure, P<0.01; for inhibitory activity following transient exposure of RBCs, in words: transient vs continued exposure, dose-response format where stated, n=3
Procedure: All plates were frozen for storage before assay. For assay, duplicate plates were preincubated with donor O+ RBCs at 2% hematocrit at 37°C in 50µL for 4-5 hours. Following preincubation, one but not the other plate in each pair was washed 4X in complete RPMI to dilute inhibitor. We transferred RBCs from both washed and unwashed plates to black, clear bottom 96-well plates (Corning Cat. No. 3904) and supplemented these suspensions with MACS-purified P. falciparum (3D7) schizonts for a starting parasitemia of 0.1% - 0.25% at 1% hematocrit. Following 72h incubation in standard culture conditions, samples were processed for SYBR-Green I signal ([Mandt et al., 2019]). […] To identify host-targeting compounds, we compared DMSO-treated to inhibitor-treated samples (Students t-test, paired). We carried out the assay with 1 µM mefloquine (Sigma-Aldrich Cat. No. M2319) as a control for reversible inhibition. All assays were conducted in biological triplicate, with each experiment utilizing different donor RBCs. For select compounds, we carried out this same assay in a dose-response series (n=3 experiments). Following normalization to DMSO-controls, we assessed inhibitor activity following transient exposure of RBCs by Two-Way ANOVA tests for repeated measures (Graphpad Prism v9): high P values indicate support for the null hypothesis that dose-dependent inhibition is not modulated by dilution after exposure, consistent with a direct inhibitory effect of the compounds on RBCs persisting after transient exposure.

uninfected RBCs [3] = conditions: 5x P. falciparum 3D7-IC50; 24, 48, 72h
P. falciparum 3D7 = assay: Co-administration with established antimalarials, IC50 shift; assay type: cell-based, Plasmodium falciparum; conditions: P<0.05
Description: Our experimental compound set is weighted toward kinase inhibitors, reflecting the high degree of small molecule development in this target space.

[4] = 3D7, 72h, ring-stage, n=3 experiments (or 2 where indicated with *)
[5] = DD2, 72h, ring-stage, n=3 experiments (or 2 where indicated with *)
[6] = 72h, asynchronous, n=3 experiments (or 2 where indicated with *)
[7] = uninfected RBCs (red blood cells), 1% hematocrit
[8] = 24h, 5x P. falciparum 3D7-IC50, % of RBCs, mean of 2 experiments
[9] = 48h, 5x P. falciparum 3D7-IC50, % of RBCs, mean of 2 experiments
[10] = 72h, 5x P. falciparum 3D7-IC50, % of RBCs, mean of 2 experiments

| Compound | IC50 (P. falciparum strain 3D7; 3D7, 72 h) [µM] | IC50 (P. falciparum strain Dd2; DD2, 72 h) [µM] | IC50 ([1]; 72 h) [µM] | IC50 (P. knowlesi YH1 strain) [µM] | hemolysis at 24 h, 5 x P. falciparum 3D7-IC50 (in vitro; [7]) [%] | hemolysis at 48 h, 5 x P. falciparum 3D7-IC50 (in vitro; [7]) [%] | hemolysis at 72 h, 5 x P. falciparum 3D7-IC50 (in vitro; [7]) [%] | Phosphatidylserine exposure (%) 24h (uninfected RBCs [2]; [8]) [%] | Phosphatidylserine exposure (%) 48h (uninfected RBCs [2]; [9]) [%] | Phosphatidylserine exposure (%) 72h (uninfected RBCs [2]; [10]) [%] | other results |
| --- | --- | --- | --- | --- | --- | --- | --- | --- | --- | --- | --- |
| O=C(O)C1=CC(=C(c2ccc(O)c(C(=O)O)c2)c2ccc(O)c(C(=O)O)c2)C=CC1=O [Aurintricarboxylic acid (ATA), Aurintricarboxylic acid] | 37 | 44 | 29 |  |  |  |  |  |  |  |  |
| O=C(O)/C=C/c1cc(Br)c(Br)c(Br)c1Br [Tetrabromocinnamic acid] | > 100 | > 85 | > 80 | > 80 |  |  |  |  |  |  |  |
| Nc1ccc(C2CCN(C(=O)c3ccc(Oc4ccc(C(F)(F)F)cc4)cc3)CC2)nn1 [BI 749327] | 25 | 22 | 30 | 40 |  |  |  |  |  |  |  |
| O=C1Nc2ccc(I)cc2/C1=C/c1cc(Br)c(O)c(Br)c1 [GW5074] | 19 | 13 | 30 | 10 |  |  |  |  |  |  |  |
| Nc1nc(N)c2nc(-c3cccc(O)c3)c(-c3cccc(O)c3)nc2n1 [TG-100-115] |  |  |  | 0.8 | -1 | 12 | 18 | 2 | 3 | 5 | IC50 (P. falciparum strain 3D7; [4]): 9 µM; IC50 (P. falciparum strain Dd2; [5]): 7 µM; antiparasitic activity in vitro, in words, P. knowlesi (P. knowlesi YH1 strain; P. knowlesi): submicromolar activity; activity against P. knowlesi stronger than against the other parasite species (P. knowlesi YH1 strain; P. knowlesi vs other parasite species): ~ 10 x; IC50 [1, 6]: 13 µM; PS exposure on RBCs, in words (uninfected RBCs [2]): similarly low levels |
| CCCCCCCCc1ccc(CCC(N)(CO)CO)cc1 [FTY720] | 3.9 | 3.5 | 14 | 2.2 | 4 | 23 | 25 | 4 | 21 | 34 | IC50 (RBC; RBC assay: PS exposure ref PMID 21063113): 5 to 10 µM |
| Oc1ccc2ccccc2c1SSc1c(O)ccc2ccccc12 [IPA-3] | 5 | 5 | 15 | 4 | -14 | 11 | 30 | 29 | 35 | 35 | antimalarial activity retained after transient exposure of RBCs, relative to continuous exposure to inhibitor (P. falciparum (3D7)): ≥ 80%; inhibitory activity following transient exposure of RBCs, in words (P. falciparum (3D7)): statistically indistinguishable from inhibition with continued exposure; IC50 (RBC; RBC assay: PS exposure ref PMID 21214270): < 5 µM |
| Cn1nccc1Nc1nccc(-c2cc3c(s2)C(C)(C)N(CCN2CCOCC2)C3=O)n1 [LY3214996] | 5.2 | 5.7 | 10 | 6 | -1 | 13 | 16 | 2 | 2 | 5 |  |
| CC(C)CC(O)(CC(C)C)c1cnn(C(=O)N2CCCC2)n1 [AA74-1] | 0.25 | 0.5 | 4 |  |  |  |  |  | 2 |  | hemolysis at 24 h, 5 x P. falciparum 3D7-IC50 (in vitro): -6%; hemolysis at 48 h, 5 x P. falciparum 3D7-IC50 (in vitro): -1%; hemolysis at 72 h, 5 x P. falciparum 3D7-IC50 (in vitro): 2%; Phosphatidylserine exposure (%) 24h (uninfected RBCs [2]): 1%; Phosphatidylserine exposure (%) 72h (uninfected RBCs [2]): 5% |
| OC(c1cc(C(F)(F)F)nc2c(C(F)(F)F)cccc12)C1CCCCN1 (stereo not drawn) [mefloquine] |  |  |  |  |  |  |  |  |  |  | inhibitory activity following transient exposure of RBCs, in words (P. falciparum (3D7)): does not retain antimalarial activity at any dose |
| CCn1c2ccccc2c2cc(-n3nncc3-c3ccccc3)ccc21 [MBQ-167] | 33 | 23 | 40 | 38 |  |  |  |  |  |  |  |
| Clc1ccc(C(c2ccc(Cl)cc2)n2cc[n+](CC(OCc3ccc(Cl)cc3Cl)c3ccc(Cl)cc3Cl)c2)cc1 (stereo not drawn) [Calmidazolium] | 0.5 | 0.6 | 1.2 | 0.6 | -6 | 7 | 14 | 3 | 4 | 9 |  |
| COc1ccc2c(c1)CCC1C2CCC2(C)C(NCCCCCCN3C(=O)C=CC3=O)CCC12 (stereo not drawn) [U-73122] |  |  |  | 4.4 | -3 | 16 | 13 | 5 | 9 | 11 | IC50 (P. falciparum strain 3D7; [4]): 4 µM; IC50 (P. falciparum strain Dd2; [5]): 5 µM; IC50 [1, 6]: 20 µM; antimalarial activity retained after transient exposure of RBCs, relative to continuous exposure to inhibitor (P. falciparum (3D7)): ≥ 80%; inhibitory activity following transient exposure of RBCs, in words (P. falciparum (3D7)): statistically indistinguishable from inhibition with continued exposure; hemolysis of RBCs, in words (uninfected RBCs [3]): lower levels; PS exposure on RBCs, in words (uninfected RBCs [2]): lower levels |
| CNC(=O)c1cc(Oc2ccc(NC(=O)Nc3ccc(Cl)c(C(F)(F)F)c3)cc2)ccn1 [Sorafenib] |  |  |  | 5 |  |  |  |  |  |  | IC50 (P. falciparum strain 3D7; [4]): 4.9 µM; IC50 (P. falciparum strain Dd2; [5]): 4 µM; IC50 [1, 6]: 2 µM; IC50 (RBC; RBC assay: PS exposure ref PMID 22907570): > 10 µM; hemolysis at 24 h, 5 x P. falciparum 3D7-IC50 (in vitro): -6%; hemolysis at 48 h, 5 x P. falciparum 3D7-IC50 (in vitro): 16%; hemolysis at 72 h, 5 x P. falciparum 3D7-IC50 (in vitro): 15%; Phosphatidylserine exposure (%) 24h (uninfected RBCs [2]): 7%; Phosphatidylserine exposure (%) 48h (uninfected RBCs [2]): 12%; Phosphatidylserine exposure (%) 72h (uninfected RBCs [2]): 21% |
| Cc1ccc(NC(=O)c2ccc(CN3CCN(C)CC3)cc2)cc1Nc1nccc(-c2cccnc2)n1 [Imatinib mesylate] |  |  |  |  | -2 | 2 | 7 | 2 | 2 |  | Phosphatidylserine exposure (%) 72h (uninfected RBCs [2]): 4% |
| COC[C@H]1Cn2cc(-c3nc(Nc4ccnn4C)ncc3C)nc2C(=O)N1Cc1ccc(F)c(F)c1 [AZD0364] | 16 | 13 | 16 |  |  |  |  |  |  |  |  |
| CN(C)C[C@@H]1CCn2cc(c3ccccc32)C2=C(C(=O)NC2=O)c2cn(c3ccccc23)CCO1 [Ruboxistaurin] |  |  |  | 3 | -1 | 6 | 14 | 2 | 2 | 6 | IC50 (P. falciparum strain 3D7; [4]): 0.9 µM; IC50 (P. falciparum strain Dd2; [5]): 0.9 µM; IC50 [1, 6]: 2.8 µM; reduction in the IC50 of chloroquine in combination with fixed, sublethal dose of test compound (P. falciparum 3D7): ≤ 2 fold; PS exposure on RBCs, in words (uninfected RBCs [2]): similarly low levels |
